Residue numbers refer to the chain shown, from its start. Names and notes keep the numbering of the source. Like-named read-outs stand apart in the source and are kept apart here. One block for each molecule: values may come before it.
Legend:
[1] = biological target: T1, M2/M1 (hRRM2 and hRRM1 reconstituted RNR) (Homo sapiens, UniProt P31350); experiment: In vitro RNR activity assay with reconstituted hRRM2/hRRM1 ([3H]CDP reduction); format: biochemical; details: read-out: In vitro RR activity (IC50 ± sd) M2/M1
T1 construct: 6xHis; made in house
T1 sequence (P31350 1-389): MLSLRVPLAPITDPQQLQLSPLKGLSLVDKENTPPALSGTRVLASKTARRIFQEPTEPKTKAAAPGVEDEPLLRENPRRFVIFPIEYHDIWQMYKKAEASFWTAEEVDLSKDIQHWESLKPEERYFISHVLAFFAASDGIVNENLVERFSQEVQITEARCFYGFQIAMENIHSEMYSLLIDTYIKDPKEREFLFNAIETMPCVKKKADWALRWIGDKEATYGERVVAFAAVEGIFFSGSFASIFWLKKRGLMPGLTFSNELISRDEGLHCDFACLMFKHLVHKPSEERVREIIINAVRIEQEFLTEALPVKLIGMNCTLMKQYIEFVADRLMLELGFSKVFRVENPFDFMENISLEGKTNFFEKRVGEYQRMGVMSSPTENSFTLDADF
Method: (§1) To reconstitute an active RNR, three 6′His-tag human RNR subunit proteins (hRRM2, p53R2, and hRRM1) were prokaryotically expressed, purified using Ni-resin affinity chromatography, and stored in 50 mM Tris-HCl, pH 7.4, 100 mM KCl at −70° C. according to standard techniques. The purified proteins were subjected to SDS-PAGE analysis. […] To reconstitute RNR, 1 μM of hRRM2 or p53R2 protein was incubated with 0.5 μM hRRM1 protein in multiple-well plates. The reconstitute RNR was tested for RNR activity according to standard techniques.
(§2) Each compound of various concentration was mixed with the purified hRRM2 and hRRM1, or p53R2 and hRRM1 at room temperature for 30 minutes. An enzymatic reaction buffer was then added to the mixture to reach a final volume of 100 μl and incubated at 37° C. for 30 minutes. The reaction buffer contained […] [^3H] CDP, 50 mM HEPES pH 7.2,6 mM DTT, 4 mM MgOAC, 2 mM ATP, 0.05 mM CDP, 100 mM KCl, and 0.24 mM NADPH. […] FeCl3 could be added to the buffer as an iron source. After dephosphorylation, the supernatant of each reaction mixture was analyzed by an HPLC-connected radioactivity detector. IC50 values were calculated by the non-linear regression equations: f (x)=(a-d)/[1+(x/c)^b]+d.

[2] = biological target: T2, p53R2/M1 (p53R2 and hRRM1 reconstituted RNR) (Homo sapiens, UniProt Q7LG56); experiment: In vitro RNR activity assay with reconstituted p53R2/hRRM1 ([3H]CDP reduction); format: biochemical; details: read-out: In vitro RR activity (IC50 ± sd) p53R2/M1
T2 construct: 6xHis; made in house
T2 sequence (Q7LG56 1-351): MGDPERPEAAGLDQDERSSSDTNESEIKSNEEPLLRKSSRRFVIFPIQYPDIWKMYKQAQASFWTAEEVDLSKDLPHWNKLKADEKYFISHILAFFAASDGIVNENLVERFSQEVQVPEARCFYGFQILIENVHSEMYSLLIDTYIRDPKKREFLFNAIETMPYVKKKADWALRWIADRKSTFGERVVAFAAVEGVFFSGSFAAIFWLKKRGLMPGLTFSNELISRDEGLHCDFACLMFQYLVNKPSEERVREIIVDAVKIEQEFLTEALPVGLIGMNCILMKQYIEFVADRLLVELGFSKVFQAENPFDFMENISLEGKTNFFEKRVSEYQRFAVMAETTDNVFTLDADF
Method: as §1, §2

[3] = system: T3, RNR containing hRRM2 or p53R2; experiment: In vitro RNR activity assay, both reconstituted RNRs compared (average, selective index, comparison in words); format: biochemical, human; details: for IC50: average of M2/M1 and p53R2/M1, read-out: In vitro RR activity (IC50) Average
T3 construct: In vitro RR activity (IC50) Average; other: compound in 1% DMSO; average of M2/M1 and p53R2/M1; other: compound in 2.5% DMSO; other: compound in dH2O + FeCl3; other: compound in dH2O; Inhi; fused on or other part: 6xHis tag on each subunit
Method: as §1, §2
The above-described four SB-HSCs were tested for their inhibitory potency and subunit-selectivity by the in vitro RNR assay in the same manner descried above. The dose-dependent inhibition curves were found.

[4] = system: tyrosyl radicals of both RNR small subunits (hRRM2, p53R2); experiment: EPR spectroscopy of tyrosyl radical after incubation with compound; format: biochemical, human; details: protein incubated with compound at room temperature for 30 minutes; EPR at 20 K
Method: Electron paramagnetic resonance (EPR) spectroscopy was then conducted. Prior to EPR, protein samples were incubated with each of the above-described compounds at room temperature for 30 minutes. EPR parameters were set as following: T=20 K, microwave frequency=9.376 GHz, microwave power=0.5 mW, modulation amplitude 4 gauss, modulation frequency 100 KHz. […] The EPR analysis was conduced in the presence of irons and the reductants.

human RNR = biological target: T4, human RNR (Homo sapiens, UniProt P23921); experiment: C-terminal RRM2 peptide added to the enzyme in vitro; format: biochemical; details: added in vitro at a ratio of 10:1 (peptide:enzyme)
T4 sequence (P23921 1-792): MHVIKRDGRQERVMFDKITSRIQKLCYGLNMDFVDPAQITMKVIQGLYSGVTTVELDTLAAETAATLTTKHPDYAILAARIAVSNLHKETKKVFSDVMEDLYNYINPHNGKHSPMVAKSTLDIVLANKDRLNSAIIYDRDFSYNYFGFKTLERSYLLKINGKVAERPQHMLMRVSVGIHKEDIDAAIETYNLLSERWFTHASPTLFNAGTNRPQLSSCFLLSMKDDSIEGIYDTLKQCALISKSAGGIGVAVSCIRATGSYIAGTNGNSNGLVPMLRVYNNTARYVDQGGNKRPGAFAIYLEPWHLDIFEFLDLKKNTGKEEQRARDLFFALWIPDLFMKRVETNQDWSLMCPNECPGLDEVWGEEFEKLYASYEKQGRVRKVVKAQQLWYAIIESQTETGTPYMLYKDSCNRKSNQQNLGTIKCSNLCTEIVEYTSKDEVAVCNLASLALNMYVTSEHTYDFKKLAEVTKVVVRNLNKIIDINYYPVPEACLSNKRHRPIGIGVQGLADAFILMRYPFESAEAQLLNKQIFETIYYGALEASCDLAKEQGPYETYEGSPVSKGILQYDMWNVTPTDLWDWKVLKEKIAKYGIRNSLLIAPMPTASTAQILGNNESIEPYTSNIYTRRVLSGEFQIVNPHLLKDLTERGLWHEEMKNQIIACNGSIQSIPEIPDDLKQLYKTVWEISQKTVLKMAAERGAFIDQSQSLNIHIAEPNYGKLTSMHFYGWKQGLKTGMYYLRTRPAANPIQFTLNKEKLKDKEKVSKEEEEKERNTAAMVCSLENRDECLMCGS
Source text: Also within the scope of this invention is a pharmaceutical composition that contains (1) an active agent, e.g., one of the above-descried antibodies, RNR mutant subunits, RNAi agents, or compounds identified to be RNR inhibitors; and (2) a pharmaceutically acceptable carrier and. Other active agents that can be used include an antisense oligonucleotide and a peptide or polypeptide containing an amino acid sequence at the C-terminus of RRM2. […] It was further observed that a truncated form of the M2 subunit, lacking these 7 amino acids at the C-terminus, fails to form a complex with the corresponding large subunit M1. […] Such peptides or polypeptides can be generated and used according to the methods described above or any other methods well known in the art. The efficacy of the pharmaceutical composition for treating a cell proliferation-associated disorder can be preliminarily evaluated in vitro. For in vivo studies, the composition can be injected into an animal and its therapeutic effects are then accessed.

p53R2/hRRM1 = biological target: T5, p53R2/hRRM1 (Homo sapiens, UniProt Q7LG56, Y124W); experiment: RNR activity of mutated p53R2 proteins with hRRM1 (modified [3H]CDP reduction assay); format: biochemical
T5 construct: 6xHis; made in house; host or cells: E. coli BL21(DE3), pET-p53R2 template
T5 sequence (Q7LG56 1-351 Y124W): T2 sequence (Q7LG56 1-351) with Y124W
Method: The activities of hRRM2/hRRM1 and p53R2/hRRM1 were measured using a modified [^3H] CDP reduction assay. The reaction mixture contained 0.125 μM [^3H] CDP (0.3 μCi), 50 mM of HEPES (pH 7.2), 6 mM DTT, 4 mM MgOAC, 2 mM ATP, 0.05 mM CDP, 100 mM KCl, 0.24 mM NADPH. The enzyme activity was measured in the presence of 0.5 μM of M1 protein and 1 μM of hRRM2 or p53R2 proteins with a total sample volume of 100 μl. After incubation at 37° C. for 15-30 minutes and dephosphorylation with phosphodiesterase, the supernatant was analyzed by HPLC using a C-18 reversed phase column to separate [^3H] cytidine and [^3H] deoxycytidine. Radioactivity of the HPLC aliquots was measured with a β-RAM-2B Flow-through radioisotope beta/gamma detector (IN/US Systems, Tampa, Fla.). The enzyme activity was measured as relative activity of dCDP/(CDP+dCDP)% (i. e., the percentage of dCDP of all ribonucleoside diphosphates and deoxyribonucleoside diphosphates). Results were normalized against those of wild type proteins, which were considered having 100% conversion of CDP to dCDP. Each value is the average of two to three determinations with deviations <0.3%.

IC50 ([1]; compound in 1% DMSO): 148 ± 7.34 µM
IC50 ([1]; compound in 2.5% DMSO): 155 ± 6.59 µM
IC50 ([1]; compound in dH2O + FeCl3): 556 ± 24.1 µM
IC50 ([1]; compound in dH2O): 165 ± 7.95 µM
IC50 ([2]; compound in 1% DMSO): 159 ± 6.82 µM
IC50 ([2]; compound in 2.5% DMSO): 146 ± 6.06 µM
IC50 ([2]; compound in dH2O + FeCl3): 1990 ± 71.2 µM
IC50 ([2]; compound in dH2O): 190 ± 6.43 µM
IC50 ([3]; compound in 1% DMSO): 153 µM
IC50 ([3]; compound in 2.5% DMSO): 150 µM
IC50 ([3]; compound in dH2O + FeCl3): 1270 µM
IC50 ([3]; compound in dH2O): 178 µM
Molecule: NC(=O)NO [HU, Hydroxyurea]
Inhibition of reconstituted RNR activity (in words) [3]: significantly inhibited the activity of RNR containing hRRM2 or p53R2
Quenching of tyrosyl radical EPR signal [4]: quenched the tyrosyl radicals of both RNR small subunits

Molecule: FTLDADF [7-amino acid peptide (FTLDADF) at the C-terminus of RRM2]
Suppression of human RNR activity (human RNR): dramatically suppress the human RNR activity

B1: Y124W-p53R2: p53R2 mutant with Tyr124 replaced by tryptophan (SEQ ID NO: 19) (protein, listed as Homo sapiens)
chain: T2 sequence (Q7LG56 1-351) with Y124W
Enzyme activity retained, fraction of the wild type protein (p53R2/hRRM1): 1/3
